Assay results reported in paper PMC12876990, “Targeting secreted PLA2 interactions with EGFR and vimentin to arrest prostate tumour growth” (Cell Death & Disease, 2025).
Square brackets hold non-standard residues; d marks the D form. Peptide text beside a SMILES is read from it. 2Nal = N[C@@H](Cc1ccc2ccccc2c1)C(=O)O

How the values were obtained:
[1] = Toxicity and serum enzyme levels in PCa xenograft model mice; format: in vivo
Experimental: Fig. 1 Derived from the structure of hGIIA, cF and c2 are orally absorbed, cell permeable and non-toxic. a Structure of hGIIA showing disulphide bonds (yellow) and the location of the peptide sequence ^70FLSYK^74 (cyan), which was cyclised to produce pentapeptide cF, then modified to produce c2. b Plasma concentrations of tritiated cF (red) and c2 (blue) following subcutaneous (sc) administration (circles) or oral (po) administration (squares) at 5 mg/kg to BALB/c mice (mean ± SE, n = 4 per time point). Tissue concentrations of c cF and d c2 following sc administration determined in the liver (blue) and kidney (brown) (mean ± SE). Dashed lines indicate estimated background levels of tritium in tissues due to tissue blood content (10% of peak plasma concentration). e–i Following po administration of c2 at 100 mg/kg to male rats (n = 5 per group), levels of c2 were measured in e plasma, f kidney, g faeces, h urine and i liver at timepoints indicated via LCMS/MS (mean ± SE). j Serum enzyme levels of markers of kidney function (creatinine), liver damage (AST and ALT) and heart damage (CK) in PCa xenograft model mice in response to treatment with vehicle (po, 3 x weekly for 6.1 ± 1.6 weeks), cF (10 mg/kg, po, 3 x weekly for 5.4 ± 0.9 weeks) or c2 (10 mg/kg, po, 3 x weekly for 4.8 ± 0.8 weeks) (n = 4, mean ± SE). Data were obtained by the South Eastern Area Laboratory Services Pathology Laboratory at Prince of Wales Hospital, Randwick, Australia. k PCa cell lines LNCaP, PC-3, and DU145 cells incubated with 100 µM c2 (green) for 24 hours with DAPI (blue), scale bar 10 µm (representative cells of n = 3 biological replicates, 5 cells per replicate).
A key failing of previous enzymatic inhibitors of hGIIA was toxicity, resulting in increased incidence of myocardial infarction in a phase III clinical trial. Thus, the toxicity profile of novel hGIIA inhibitors is critically important in evaluating new inhibitors. […] Extensive histopathology was performed on all animals in the control and high dose groups sacrificed on day 29, with no difference observed between the treated groups and the vehicle control group by any measure. […] In light of the toxicity associated with the myocardial infarction study, data from this c2 toxicity study relevant to heart toxicity are shown in Table 1. Heart wet weight was not affected by either low or high dose relative to vehicle, indicating the compound has no significant pro-hypertrophy effect at these doses. The lack of effect of c2 on gross necropsy or histopathology scores also supports the preclinical safety of the compound in the heart. Importantly, c2 has no effect on serum potassium levels or the Na/K ratio, since hypokalemia (low potassium) is highly arrythmogenic. […] It is of interest also that serum alanine transaminase is unaffected by c2 at the doses tested, since this marker was raised three-fold over the normal range in 6.3-fold more patients on varespladib than placebo in the VISTA acute coronary syndrome trial of this sPLA2 inhibitor [13].

[2] = 28-day oral toxicity study: feed consumption
Experimental: The calculated volumetric do se wa s administered to each rat orally by gav age, using a plastic
intragastric cannula attached to a 3 mL syringe.
Two dose level s of 1 and 20 mg/kg of the te st it em susp ension were administered to each rat
every 3 days (total 10 do ses) for 28 days. This c orresponded to volumetric dose of 10.09 and
10.23 mL/kg. The volumetric dose administered to each animal was calculated on Days 1, 8, 15
Feed consumption was monitored weekly over the 28-day experimental period in all groups
and was continued for a further 2 weeks in the recovery groups (42-day experimental
period). Feed intake was monitored by providing a known mass of feed to each cage and
subtracting the mas s remaining at the end of th e weekly period. Animals were fa sted
overnight on either Day 28 (main groups) or Day 42 (recovery groups).

[3] = target: T1, hGIIA/vimentin interaction (Homo sapiens, UniProt P08670); experiment: Enzyme immunoassay of hGIIA binding to vimentin coil 2; conditions: in vitro; read-out: IC50, inhibition of the interaction between hGIIA and vimentin
T1 construct: Purified vimentin fragments (full length or coil 2) were seeded to a 96-well microplate at 15 μg/mL; hGIIA purified in house from conditioned medium of CHO cell line 2B1
Experimental: Prior to assay, hGIIA antibody 4A1 was conjugated to alkaline phosphatase (4A1-AP), produced using the lightning-link conjugation kit (ab102850, Abcam) as per the manufacturer’s instructions.
Purified vimentin fragments (full length or coil 2) were seeded to a 96-well microplate at 15 μg/mL with a 100 μL/well volume. After an overnight incubation at 4 °C, the plate was emptied. Each well was then blocked overnight at 4 °C with 200 μL of 1% BSA in PBS. The plate was emptied and washed with PBST (PBS + 0.05% Tween20). hGIIA solution of 100 ng/mL in PBS with 0.1% BSA was prepared with and without inhibitors c2, Withaferin A and LY311727 in DMSO with concentrations 0.1-100 µM. hGIIA working solution with 0.4% DMSO served as a positive control and PBS with 0.1% BSA served as a negative control. A 100 μL volume of each prepared hGIIA-inhibitor mixture was added to wells in triplicate and incubated at 37 °C for two hours. The plate was washed twice with PBST, then incubated with the 4A1-AP conjugate at 1 μg/mL 0.1% BSA in PBS and incubated for one hour at 37 °C. Plates were then emptied and washed three times with PBST, followed by washing twice with carbonate buffer (8 mM Na2CO3, 36 mM NaHCO3, 2 mM MgCl2, pH 9.8), before incubation with AP substrate p-nitro-phenyl phosphate (PNPP) powder at 1 mg/mL concentration in carbonate buffer. The plate was incubated at 37 °C for 60 mins then absorbance was read at 405 nm by a Spectramax M2 plate reader. All washes were a 200 µL/well volume.

T1 sequence (P08670 269-407 limits assumed): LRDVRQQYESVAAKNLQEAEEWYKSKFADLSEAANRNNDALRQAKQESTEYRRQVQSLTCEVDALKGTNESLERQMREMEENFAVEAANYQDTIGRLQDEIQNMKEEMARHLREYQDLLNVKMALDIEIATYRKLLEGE

Q: For `CC(C)C[C@@H]1NC(=O)[C@H](Cc2ccc3ccccc3c2)NC(=O)[C@H](CCCNC(=N)N)NC(=O)[C@H](Cc2ccc3ccccc3c2)NC(=O)[C@H](CO)NC1=O` [c2, cyclo-((2-Nal)-Leu-Ser-(2-Nal)-Arg)] (cyclo([2Nal]LS[2Nal]R)), which “serum creatinine, aspartate aminotransferase, alanine aminotransferase, creatine kinase levels” value ([1]; 10 mg/kg po thrice weekly) is on record?
A: no significant changes

Q: What about the damage to organs ([1]; 10 mg/kg thrice weekly for 10 weeks) of the same molecule?
A: no observable damage to organs

Q: And the gross toxicity ([1]; max dosages of 10 mg/kg thrice weekly for 10 weeks)?
A: No gross toxicity

Q: What about the “feed intake vs control” value ([2]; 28-day and 42-day experimental period) of the same molecule?
A: similar

Q: What about the Mean feed intake/cage/week ([2]; Week 1, Gr 2, 1 mg/kg, 5 animals/cage) of the same molecule?
A: 801 ± 26.9 g

Q: And the Mean feed intake/cage/week ([2]; Week 1, Grs 3 & 5, 20 mg/kg)?
A: 819 ± 55.4 g

Q: And the Mean feed intake/cage/week ([2]; Week 2, Gr 2, 1 mg/kg)?
A: 839 ± 12.0 g

Q: And the Mean feed intake/cage/week ([2]; Week 2, Grs 3 & 5, 20 mg/kg)?
A: 877 ± 45.1 g

Q: And the Mean feed intake/cage/week ([2]; Week 3, Gr 2, 1 mg/kg)?
A: 845 ± 0 g

Q: And the Mean feed intake/cage/week ([2]; Week 3, Grs 3 & 5, 20 mg/kg)?
A: 916 ± 35.2 g

Q: And the Mean feed intake/cage/week ([2]; Week 4, Grs 3 & 5, 20 mg/kg)?
A: 815 ± 42.0 g

Q: And the Mean feed intake/cage/week ([2]; Week 5, Gr 5 recovery, 20 mg/kg)?
A: 1013 g

Q: And the Mean feed intake/cage/week ([2]; Week 6, Gr 5 recovery, 20 mg/kg)?
A: 802 g

Q: What about the Mean feed intake/cage/week ([2]; week 4, Gr 2, 1 mg/kg) of the same molecule?
A: 775 ± 27.6 g

Q: And the IC50 [3]?
A: 56.5 µM
